Source: US20080234306A1, “N-Oxides of 4,5-Epoxy-Morphinanium Analogs” (Progenics Pharmaceuticals, Inc., priority 2006, published 2008)

What was measured:
human μ-receptor = human μ-receptor (Homo sapiens, UniProt P35372); assay: human μ-receptor model (binding, Ki); settings: read-out: % Inhibition at 1 × 10^−5 M
μ-opioid receptor [1] = target: T1, μ-opioid receptor (Cavia porcellus, UniProt A0ACM8Q262); assay: Evaluation of antagonist activity at the μ-opioid receptor, guinea pig ileum test (tissue model, responses to DAMGO); settings: for IC50: tissue model for antagonist activity
T1 sequence (A0ACM8Q262 1-400): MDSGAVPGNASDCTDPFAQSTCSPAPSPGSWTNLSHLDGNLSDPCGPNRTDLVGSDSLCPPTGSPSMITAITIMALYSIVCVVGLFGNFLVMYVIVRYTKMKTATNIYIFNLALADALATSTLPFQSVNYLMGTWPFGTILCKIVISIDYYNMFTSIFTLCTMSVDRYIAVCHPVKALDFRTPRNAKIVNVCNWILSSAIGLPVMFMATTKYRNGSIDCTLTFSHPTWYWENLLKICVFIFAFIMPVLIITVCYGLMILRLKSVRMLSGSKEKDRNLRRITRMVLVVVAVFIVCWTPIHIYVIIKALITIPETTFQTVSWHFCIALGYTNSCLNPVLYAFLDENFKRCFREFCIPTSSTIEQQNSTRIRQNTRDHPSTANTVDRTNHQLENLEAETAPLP
Procedure: (§1) Evaluation for Agonist and Antagonist Activities at the […] Receptors in the Guinea Pig Ileum
(§2) Agonist/antagonist activity at the μ-opioid receptor was determined using the well known guinea pig ileum test. Briefly, an a section of ileum was placed in a stabilized solution in a tensed state. Transducers were used to measure changes in tension upon electrical stimulation to the tissue before and after challenge with a potential agonist/antagonist Using a control, constriction inhibition, and constriction inhibition cancellation, may be measured.

μ-opioid receptor [2] = system: T2, μ-opioid receptor; assay: Evaluation of agonist activity at the μ-opioid receptor, guinea pig ileum test
T2 construct: Responses to increasing concentrations of the compounds (% control response to DAMGO); other: compound 1.0E^−04 M; Responses to increasing concentrations of the compounds (% control response to DAMGO); other: compound 1.0E^−08 M; other: compound 3.0E^−08 M; Responses to increasing concentrations of the com
Procedure: as §1, §2

μ-opioid receptor [3] = target: T1, μ-opioid receptor; assay: Evaluation of agonist activity at the μ-opioid receptor, guinea pig ileum test
Procedure: as §1, §2

[4] = guinea pig, read-out: Responses to DAMGO (1.0E−07 M) in the presence of increasing concentrations of the compounds (% control response)

Sequence of human μ-receptor (P35372 whole entry): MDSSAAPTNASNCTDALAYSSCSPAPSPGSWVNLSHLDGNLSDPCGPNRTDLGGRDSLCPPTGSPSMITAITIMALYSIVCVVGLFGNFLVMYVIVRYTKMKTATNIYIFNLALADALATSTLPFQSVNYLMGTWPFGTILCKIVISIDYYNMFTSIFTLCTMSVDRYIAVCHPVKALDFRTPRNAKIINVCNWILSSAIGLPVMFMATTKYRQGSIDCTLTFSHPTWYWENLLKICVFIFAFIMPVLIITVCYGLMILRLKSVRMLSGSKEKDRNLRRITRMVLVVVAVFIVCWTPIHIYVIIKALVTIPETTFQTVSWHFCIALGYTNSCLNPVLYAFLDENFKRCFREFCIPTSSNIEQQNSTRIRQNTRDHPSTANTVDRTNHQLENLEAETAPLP

Compound: [O-][N+]1(CC2CC2)CC[C@]23c4c5ccc(O)c4O[C@H]2[C@@H](CO)CC[C@@]3(O)[C@H]1C5 (stereo partly drawn) [Compound C0021, 17-cyclopropylmethyl-4,5α-epoxy-3,14-dihydroxy-6α-hydroxymethyl morphinan N-oxide]
- inhibition at 10 µM (human μ-receptor): 95%

Compound: C=C1CC[C@@]2(O)[C@H]3Cc4ccc(O)c5c4[C@@]2(CC[N+]3([O-])CC2CC2)[C@H]1O5 (stereo partly drawn) [Compound C0002]
- IC50 (μ-opioid receptor [1]): > 100000 nM
- inhibition at 10 µM (human μ-receptor): 94%

Compound: O=C1CC[C@@]2(O)[C@H]3Cc4ccc(O)c5c4[C@@]2(CC[N+]3([O-])CC2CC2)[C@H]1O5 (stereo partly drawn) [Compound C0001, (S)-17-Cyclopropylmethyl-4,5α-epoxy-3,14-hydroxy-morphinan-6-one N-oxide]
- Responses to increasing concentrations of the compounds (% control response to DAMGO) (μ-opioid receptor [2]; compound 1.0E^−04 M): 0%
- Responses to increasing concentrations of the compounds (% control response to DAMGO) (μ-opioid receptor [2]; compound 1.0E^−05 M): 0%
- Responses to increasing concentrations of the compounds (% control response to DAMGO) (μ-opioid receptor [2]; compound 1.0E^−06 M): 0%
- Responses to increasing concentrations of the compounds (% control response to DAMGO) (μ-opioid receptor [2]; compound 1.0E^−07 M): 0%
- Responses to increasing concentrations of the compounds (% control response to DAMGO) (μ-opioid receptor [2]; compound 1.0E^−08 M): 0%
- Responses to increasing concentrations of the compounds (% control response to DAMGO) (μ-opioid receptor [2]; compound 3.0E^−05 M): 0%
- Responses to increasing concentrations of the compounds (% control response to DAMGO) (μ-opioid receptor [2]; compound 3.0E^−06 M): 0%
- Responses to increasing concentrations of the compounds (% control response to DAMGO) (μ-opioid receptor [2]; compound 3.0E^−07 M): 0%
- Responses to increasing concentrations of the compounds (% control response to DAMGO) (μ-opioid receptor [2]; compound 3.0E^−08 M): 0%
- agonistic activity (μ-opioid receptor [2]; concentration of 1.0×10^−4 M, versus DAMGO): No agonistic activity
- remaining activity at 0.01 µM (μ-opioid receptor [1]; [4]): 100%
- remaining activity at 0.03 µM (μ-opioid receptor [1]; [4]): 91%
- remaining activity at 0.1 µM (μ-opioid receptor [1]; [4]): 80%
- remaining activity at 0.3 µM (μ-opioid receptor [1]; [4]): 62%
- remaining activity at 1 µM (μ-opioid receptor [1]; [4]): 36%
- remaining activity at 3 µM (μ-opioid receptor [1]; [4]): 23%
- remaining activity at 10 µM (μ-opioid receptor [1]; [4]): 16%
- remaining activity at 30 µM (μ-opioid receptor [1]; [4]): 16%
- remaining activity at 100 µM (μ-opioid receptor [1]; [4]): 16%
- IC50 (μ-opioid receptor [1]): 560 nM
- inhibition at 10 µM (human μ-receptor): 96%

Compound: O=C1CC[C@H]2[C@H]3Cc4ccc(O)c5c4[C@@]2(CC[N+]3([O-])CC2CC2)[C@H]1O5 (stereo partly drawn)
- melting point: 209 to 211 °C

Compound: Oc1ccc2c3c1O[C@H]1[C@@H](O)CC[C@@]4(O)[C@@H](C2)[N+](O)(CC2CC2)CC[C@]314 (stereo partly drawn) [Compound C0003, (S)-17-Cyclopropylmethyl-4,5α-epoxy-morphinan-3,6α,14-triol N-oxide]
- inhibition at 10 µM (human μ-receptor): 100%

Compound: [O-][N+]1(CC2CC2)CC[C@]23c4c5ccc(O)c4O[C@H]2[C@@H](Cn2ccnc2)CC[C@@]3(O)[C@H]1C5 (stereo partly drawn) [Compound C0018, 17-Cyclopropylmethyl-4,5α-epoxy-3,14-dihydroxy-6α-(1H-imidazol-1-yl)methyl morphinan N-oxide]
- inhibition at 10 µM (human μ-receptor): 89%

Compound: [O-][N+]1(CC2CC2)CC[C@]23c4c5ccc(O)c4O[C@H]2[C@@H](O)CC[C@@]3(OCCCc2ccccc2)[C@H]1C5 (stereo partly drawn)
- melting point: 155 to 159 °C

Compound: C[C@@H](NC(=O)[C@@H](N)Cc1ccc(O)cc1)C(=O)NCC(=O)N(C)[C@@H](Cc1ccccc1)C(=O)NCCO [DAMGO, D-Ala^2,N-Me-Phe^4,Gly^5-ol-enkephalin, reference compound]
- Response + Naloxone (1.0E^−07 M) (μ-opioid receptor [3]; after highest compound concentration, + naloxone 1.0E^−07 M): 4%
- activation at 1 µM (μ-opioid receptor [3]; compound 1.0E^−06 M, read-out: Responses to increasing concentrations of the compounds (% control response to DAMGO)): 103%
- activation at 0.1 µM (μ-opioid receptor [3]; compound 1.0E^−07 M, read-out: Responses to increasing concentrations of the compounds (% control response to DAMGO)): 96%
- activation at 0.01 µM (μ-opioid receptor [3]; compound 1.0E^−08 M, read-out: Responses to increasing concentrations of the compounds (% control response to DAMGO)): 57%
- activation at 0.001 µM (μ-opioid receptor [3]; compound 1.0E−09 M, read-out: Responses to increasing concentrations of the compounds (% control response to DAMGO)): 9%

Compound: [O-][N+]1(CC2CC2)CC[C@]23c4c5ccc(O)c4O[C@H]2CCC[C@@]3(O)[C@H]1C5 (stereo partly drawn) [Compound C0023, 17-Cyclopropylmethyl-4,5α-epoxy-3,14-dihydroxymorphinan-N-oxide]
- inhibition at 10 µM (human μ-receptor): 101%

Compound: CC1C[C@@]2(O)[C@H]3Cc4ccc(O)c5c4[C@@]2(CC[N+]3([O-])CC2CC2)[C@@H](O5)C1=O (stereo partly drawn) [Compound C0030, (S)-17-Cyclopropylmethyl-4,5α-epoxy-3,14-dihydroxy-7-methyl-morphinan-6-one N-oxide]
- inhibition at 10 µM (human μ-receptor): 67%

Compound: C=C1CC[C@@]2(OCCCc3ccccc3)[C@H]3Cc4ccc(O)c5c4[C@@]2(CC[N+]3([O-])CC2CC2)[C@H]1O5.O=C(O)C(F)(F)F (stereo partly drawn)
- melting point: 182 °C (dec.)
